Experimental findings from US11976083B2, “Inhibitors of peptidylarginine deiminases” (Gilead Sciences, Inc., priority 2020, dated 2024) are described below.

Structures are written as SMILES.

The target of this assay is T1, human PAD4 (Homo sapiens, UniProt Q9UM07).
T1 construct: human PAD4 (NM_012387), A2-P663, was PCR amplified; His-SUMO (N, cleaved yes); made in house; host or cells: E. coli BL21(DE3)
The experiment in a line: In vitro PAD4 BAEE biochemical assay. To be noted: BAEE substrate 3 mM, 5 nM PAD4, 2 mM calcium chloride; geometric mean of multiple experiments. An outline of the steps: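 Recombinant human PAD4 (5 nM final) with 2 mM CaCl2 was preincubated with compound 30 min at 25 °C in MOPS buffer pH 7.6, then reacted with 3 mM BAEE for 2 h at 25 °C. After EDTA stop, released ammonia was detected by o-phthalaldehyde/DTT fluorescence (ex 405/em 535 nm); IC50 from four-parameter fit, geometric mean.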

The term IC50 denotes the concentration needed to halve the response being measured.

T1 sequence (Q9UM07 2-663): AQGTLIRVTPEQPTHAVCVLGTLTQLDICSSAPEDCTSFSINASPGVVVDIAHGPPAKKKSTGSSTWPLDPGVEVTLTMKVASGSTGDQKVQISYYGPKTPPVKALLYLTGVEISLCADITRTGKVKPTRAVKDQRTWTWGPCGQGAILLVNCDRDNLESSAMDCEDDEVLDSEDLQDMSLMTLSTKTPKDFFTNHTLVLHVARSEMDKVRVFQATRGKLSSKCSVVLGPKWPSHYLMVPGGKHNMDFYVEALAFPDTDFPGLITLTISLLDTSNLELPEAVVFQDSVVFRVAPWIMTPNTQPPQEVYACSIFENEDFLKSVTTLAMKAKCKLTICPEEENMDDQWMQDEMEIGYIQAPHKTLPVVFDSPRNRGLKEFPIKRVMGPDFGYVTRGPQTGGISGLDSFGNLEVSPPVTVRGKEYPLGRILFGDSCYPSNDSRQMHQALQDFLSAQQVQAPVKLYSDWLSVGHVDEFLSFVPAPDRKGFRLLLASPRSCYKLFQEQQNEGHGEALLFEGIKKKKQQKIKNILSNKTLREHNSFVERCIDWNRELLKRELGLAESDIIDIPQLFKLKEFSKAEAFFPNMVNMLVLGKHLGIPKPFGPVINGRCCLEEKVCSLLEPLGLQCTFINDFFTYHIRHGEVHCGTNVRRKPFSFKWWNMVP

Take `COc1cc(C(=O)N2CCC[C@@H](N)C2)cc2nc(-c3cc4ccc5nc4n3CCCCOc3ccccc3C(=O)N[C@@H]5C)n(C)c12` [Example 30, (2~{R})-17-[5-[(3~{R})-3-aminopiperidine-1-carbonyl]-7-methoxy-1-methyl-benzimidazol-2-yl]-2-methyl-11-oxa-3,16,22-triazatetracyclo[14.5.2.0^{5,10).0^{19,23}] tricosa-1(22),5,7,9,17,19(23),20-heptaen-4-one]: the concentration for half-maximal inhibition (IC50) is 1780 nM.

With `C[C@H]1NC(=O)CCCCCCCn2c(-c3nc4cc(C(=O)N5CCC[C@@H](N)C5)ccn4c3C3CC3)cc3ccc1nc32` [Example 228, (11~{R})-17-[7-[(3~{R})-3-aminopiperidine-1-carbonyl]-3-cyclopropyl-imidazo[1,2-a]pyridin-2-yl]-11-methyl-1,10,19-triazatricyclo[10.5.2.0^{15,18}]nonadeca-12(19),13,15(18),16-tetraen-9-one], the concentration for half-maximal inhibition (IC50) was 131 nM.

For the compound `COC1CC1n1c(-c2cc3ccc4nc3n2CCCCC[C@@H]2C[C@H]2C(=O)N[C@@H]4C)nc2cc(C(=O)N[C@H]3CNCC[C@@H]3F)c(F)cc21` (stereo partly drawn) [Example 607, 6-fluoro-~{N}-[(3~{S),4~ {S})-4-fluoro-3-piperidyl]-1-(2-methoxycyclopropyl)-2-[(2~{R},5~{R},7~{R})-2-methyl-4-oxo-3,13,19-triazatetracyclo[11.5.2.0^ {5,7}.0^{16,20}]icosa-1(18),14,16,19-tetraen-14-yl]benzimidazole-5-carboxamide], the IC50 stood at 51 nM.

As to `COc1cc(C(=O)N2C[C@H](N)[C@@H]3CC[C@H]2C3)cc2nc(-c3cc4ccc5nc4n3CCCCCCC3(CC3)C(=O)N[C@@H]5C)n(C)c12` [Example 445, (11~{R})-17-[5-[(1~{S},4~{R},5~{R})-4-amino-2-azabicyclo[3.2.1]octane-2-carbonyl]-7-methoxy-1-methyl-benzimidazol-2-yl]-11-methyl-spiro[1,10,19-triazatricyclo[10.5.2.0^{15,18}]nonadeca-12(19),13,15(18),16-tetraene-8,1′-cyclopropane]-9-one], the IC50 was 72 nM.

As to `COc1cc(C(=O)N2CCC[C@@H](N)C2)cc2nc(-c3cc4ccc5nc4n3CCCCCC[C@H](C)C(=O)N[C@@H]5C)n(C)c12` [Example 111, (8~{S},11~{R})-17-[5-[(3~{R})-3-aminopiperidine-1-carbonyl]-7-methoxy-1-methyl-benzimidazol-2-yl]-8,11-dimethyl-1,10,19-triazatricyclo[10.5.2.0^{15,18}]nonadeca-12(19),13,15(18),16-tetraen-9-one], the IC50 stood at 49 nM.

As to `COc1cc(C(=O)N2[C@H]3CC[C@@H]2[C@H](N)C3)cc2nc(-c3cc4ccc5nc4n3CCCC[C@H]3C[C@@H]3C(=O)N[C@@H]5C)n(C)c12` [Example 152, (2~{R},5~{S},7~{S})-13-[5-[(1~{R},2~{R},4~{S})-2-amino-7-azabicyclo[2.2.1]heptane-7-carbonyl]-7-methoxy-1-methyl-benzimidazol-2-yl]-2-methyl-3,12,18-triazatetracyclo[10.5.2.0^{5,7}.0^{15,19}] nonadeca-1(18),13,15(19),16-tetraen-4-one], the IC50 came to 43 nM.

For `COc1cc(C(=O)N2CCC[C@@H](N)C2)cc2nc(-c3cc4ccc5nc4n3CCCCCCNC(=O)CO5)c(C)n12` [Example 293, 17-[7-[(3˜{R})-3-aminopiperidine-1-carbonyl]-5-methoxy-3-methyl-imidazo[1,2-a]pyridin-2-yl]-11-oxa-1,8,19-triazatricyclo[10.5.2.0^{15,18}]nonadeca-12(19),13,15(18),16-tetraen-9-one], the IC50 was found to be 548 nM.

For `COc1cc(C(=O)N2C[C@H]3CC[C@@H]2[C@@H]3N)cc2nc(-c3cc4ccc5nc4n3CCCCCCCC(=O)N[C@@H]5C)c(C)n12` [Example 302, (11~{R})-17-[7-[(1~{R},4~{R},7~{R})-7-amino-2-azabicyclo[2.2.1]heptane-2-carbonyl]-5-methoxy-3-methyl-imidazo[1,2-a]pyridin-2-yl]-11-methyl-1,10,19-triazatricyclo[10.5.2.0^{15,18}]nonadeca-12(19),13,15(18),16-tetraen-9-one], the IC50 turned out to be 67 nM.

As for `C[C@H]1NC(=O)c2cnc(Cl)cc2CCCCCn2c(-c3nc4cc(C(=O)N[C@H]5CNCC[C@@H]5F)c(F)cc4n3C3CC3)cc3ccc1nc32` [Example 357, 2-[(2~{R})-8-chloro-2-methyl-4-oxo-3,7,16,22-tetrazatetracyclo[14.5.2.0^{5,10}.0^{19,23}]tricosa-1(22),5,7,9,17,19(23),20-heptaen-17-yl]-1-cyclopropyl-6-fluoro-~ {N}-[(3~{S},4~{S})-4-fluoro-3-piperidyl]benzimidazole-5-carboxamide], the IC50 is 31 nM.

As to `C[C@@H]1[C@H](N)CCCN1C(=O)c1ccc2c(nc(-c3cc4ccc5nc4n3CC/C=C/C[C@@H]3C[C@H]3C(=O)N[C@@H]5C)n2C2CC2)c1F` [Example 753, (2~{R},5~{R},7~{R},9~{E})-14-[5-[(2~{R},3~{R})-3-amino-2-methyl-piperidine-1-carbonyl]-1-cyclopropyl-4-fluoro-benzimidazol-2-yl]-2-methyl-3,13,19-triazatetracyclo [11.5.2.0^{5,7}.0^{16,20}] icosa-1(19),9,14,16(20), 17-pentaen-4-one], the IC50 is 113 nM.

For `COc1cc(C(=O)N2CC[C@@H](OC)[C@@H](N)C2)cc2nc(-c3cc4ccc5nc4n3CCC/C=C/c3ccccc3C(=O)N[C@@H]5C)n(C)c12` [Example 496, (2~{R},11~{E})-17-[5-[(3~{S},4~{R})-3-amino-4-methoxy-piperidine-1-carbonyl]-7-methoxy-1-methyl-benzimidazol-2-yl]-2-methyl-3,16,22-triazatetracyclo[14.5.2.0^ {5,10).0^{19,23}]tricosa-1(22),5(10),6,8,11,17,19 (23),20-octaen-4-one], the IC50 amounted to 125 nM.

As for `CO[C@@H]1CCN(C(=O)c2cc(F)c3c(c2)nc(-c2cc4ccc5nc4n2CCCCCc2nc4ccccc4nc2C(=O)N[C@@H]5C)n3C2CC2)C[C@@H]1N` [Example 828, (2~{R})-21-[5-[(3~{S), 4~{R})-3-amino-4-methoxy-piperidine-1-carbonyl]-1-cyclopropyl-7-fluoro-benzimidazol-2-yl]-2-methyl-3,6,13,20,26-pentazapentacyclo [18.5.2.0^{5,14}.0^{7, 12}.0^{23,27}]heptacosa-1(26),5(14),6,8,10,12,21,23(27), 24-nonaen-4-one], the half-maximal inhibitory concentration (IC50) came out at 24 nM.

Regarding `COc1cc(C(=O)N2CCC[C@@H](N)C2)cc2nc(-c3cc4ccc5nc4n3CCC/C=C/C[C@](C)(C(F)(F)F)C(=O)N[C@@H]5C)n(C)c12` (single isomer, unassigned) [Example 3, (5˜{E},8˜{S},11˜{R})-17-[5-[(3˜{R})-3-aminopiperidine-1-carbonyl]-7-methoxy-1-methyl-benzimidazol-2-yl]-8,11-dimethyl-8-(trifluoromethyl)-1,10,19-triazatricyclo[10.5.2.0^{15,18}]nonadeca-5,12(19),13,15(18),16-pentaen-9-one], the IC50 came out at 110 nM.

As for `COc1cc(C(=O)N[C@H](C)CN)cc2nc(-c3cc4ccc5nc4n3CCCCC[C@@H]3CC3C(=O)N[C@@H]5C)n(C)c12` (stereo partly drawn) [Example 509, ~{N}-[(1~{R})-2-amino-1-methyl-ethyl]-7-methoxy-1-methyl-2-[(2~{R},7~{R})-2-methyl-4-oxo-3,13,19-triazatetracyclo[11.5.2.0^ {5,7}.0^{16,20}]icosa-1(19),14,16(20),17-tetraen-14-yl]benzimidazole-5-carboxamide], the IC50 is 146 nM.

As for `C[C@H]1NC(=O)[C@@H]2C[C@H]2CCCC(F)(F)Cn2c(-c3nc4cc(C(=O)N5C[C@H](N)[C@@H]6CC[C@H]5C6)cc(F)c4n3C3CC3)cc3cc(F)c1cc32` [Example 464, (2~{R},5~{R},7~{R})-14-[5-[(1~{S},4~{R},5~{R})-4-amino-2-azabicyclo[3.2.1]octane-2-carbonyl]-1-cyclopropyl-7-fluoro-benzimidazol-2-yl]-11,11,18-trifluoro-2-methyl-3,13-diazatetracyclo[11.5.2.0^{5,7}.0^{16,20}] icosa-1(19),14,16(20),17-tetraen-4-one], the IC50 worked out at 28 nM.

Turning to `C[C@H]1NC(=O)c2ccc(Cl)nc2CCCCCn2c(-c3nc4cc(C(=O)N5C[C@H](N)[C@@H]6CC[C@H]5C6)cc(OC(F)(F)F)c4n3C)cc3ccc1nc32` [Example 714, (2~{R})-17-[5-[(1~{S},4~{R}, 5~{R})-4-amino-2-azabicyclo [3.2.1]octane-2-carbonyl]-1-methyl-7-(trifluoromethoxy)benzimidazol-2-yl]-8-chloro-2-methyl-3,9,16,22-tetrazatetracyclo[14.5.2.0^ {5,10).0^{19,23}]tricosa-1(22), 5(10),6,8,17,19(23),20-heptaen-4-one], the concentration for half-maximal inhibition (IC50) turned out to be 40 nM.

Turning to `COc1cc(C(=O)N2CC[C@@H](OC)[C@@H](N)C2)cc2nc(-c3cc4ccc5nc4n3CCCCCc3cc4ccccc4nc3C(=O)N(C)[C@@H]5C)n(C)c12` [Example 735, (2~{R})-21-[5-[(3~{S},4~ {R})-3-amino-4-methoxy-piperidine-1-carbonyl]-7-methoxy-1-methyl-benzimidazol-2-yl]-2,3-dimethyl-3,6,20,26-tetrazapentacyclo[18.5.2.0^ {5,14).0^{7,12}.0^ {23,27}]heptacosa-1(26),5(14),6,8,10,12,21,23(27), 24-nonaen-4-one], the half-inhibitory concentration (IC50) was 143 nM.

Turning to `C[C@H]1NC(=O)c2nc3ccccc3nc2CCCCCn2c(-c3nc4cc(C(=O)N5C[C@H](N)[C@@H]6CC[C@H]5C6)cc(F)c4n3C3CC3)cc3ccc1nc32` [Example 839, (2~{R})-21-[5-[(1~ {S},4~{R},5~{R})-4-amino-2-azabicyclo[3.2.1]octane-2-carbonyl]-1-cyclopropyl-7-fluoro-benzimidazol-2-yl]-2-methyl-3,6,13,20,26-pentazapentacyclo[18.5.2.0^ {5,14}.0^{7,12}.0^ {23,27}]heptacosa-1(26),5(14), 6,8,10,12,21,23(27),24-nonaen-4-one], the IC50 amounted to 13 nM.
